Data taken from US9447057B2, “Schiff bases of thiazoles: a new class of ureases inhibitors” (priority 2014, dated 2016).
Entries after “also recorded” stand apart in the source; their conditions may differ.

The molecules below were run against Jack bean (Canavalia ensiformis) urease (Canavalia ensiformis (Jack bean) (Dolichos ensiformis), UniProt P07374) (assay: biochemical). Settings: IC50.
Format: biochemical
Description: The Schiff bases of thiazoles were evaluated for their urease inhibitory potential by using the following protocol:
Finally the results were processed by software SoftMax Pro (Molecular Devices, CA, USA), MS-Excel and Ez-fit. The Percent inhibition was calculated from the formula given below: 100−(OD of test compound/OD of control)×100
The IC50 values were then calculated using the EZ-Fit Enzyme Kinetics program (Perrella Scientific Inc., Amherst, U.S.A.).

Q: How did the IC50 turn out when CCOc1cccc(C=Nc2nc(-c3ccccc3)cs2)c1O [Compound 3, 2-Ethoxy-6-{[(4-phenyl-1,3-thiazol-2-yl)imino]methyl}phenol] was run?
A: 7.9 µM

Q: Which IC50 does the source give for COc1cccc(C=Nc2nc(-c3ccccc3)cs2)c1O [Compound 6, 2-Methoxy-6-{[(4-phenyl-1,3-thiazol-2-yl)imino]methyl} phenol] here?
A: 8.8 µM

Same assay, conditions: IC50 ± SEM

Q: Which IC50 does the source give for CCOc1cccc(C=Nc2nc(-c3ccccc3)cs2)c1O [Compound 3, 2-Ethoxy-6-{[(4-phenyl-1,3-thiazol-2-yl)imino]methyl}phenol] here?
A: 7.9 ± 0.08 µM

Q: Which IC50 does the source give for Oc1ccc(C=Nc2nc(-c3ccccc3)cs2)cc1 [Compound 12, 4-{[(4-Phenyl-1,3-thiazol-2-yl)imino]methyl}phenol] here?
A: 20.16 ± 0.07 µM

Q: Which IC50 does the source give for Oc1cccc(C=Nc2nc(-c3ccccc3)cs2)c1O [Compound 23, 3-{[(4-Phenyl-1,3-thiazol-2-yl)imino]methyl}-1,2-benzenediol] here?
A: 19.63 ± 0.19 µM

Same assay, conditions: Jack bean urease, pH 6.8, 100 mM urea, 30° C., 15 min; read-out: IC50 ± SEM

Q: How did the IC50 turn out when C(=Nc1nc(-c2ccccc2)cs1)c1c[nH]c2ccccc12 [Compound 2, N-[1H-indol-3-yl-methylidene]-N-(4-phenyl-1,3-thiazol-2-yl)amine] was run?
A: 8.56 ± 0.027 µM

Q: How did the IC50 turn out when Oc1ccc(Cl)cc1C=Nc1nc(-c2ccccc2)cs1 [Compound 8, 4-Chloro-2-{[(4-phenyl-1,3-thiazol-2-yl)imino]methyl} phenol] was run?
A: 8.13 ± 0.02 µM

Q: How did the IC50 turn out when Cc1ccc(C=Nc2nc(-c3ccccc3)cs2)o1 [Compound 10, N-[(5-Methyl-2-furyl)methylidene]-N-(4-phenyl-1,3-thiazol-2-yl)amine] was run?
A: 17.83 ± 0.07 µM

Q: For Oc1ccccc1C=Nc1nc(-c2ccccc2)cs1 [Compound 16, 2-{[(4-Phenyl-1,3-thiazol-2-yl)imino]methyl} phenol], which IC50 is on record?
A: 12.4 ± 0.14 µM

Q: How did the IC50 turn out when C(=Nc1nc(-c2ccccc2)cs1)c1cccc2ccccc12 [Compound 21, N-[1-Naphthyl-methylidene]-N-(4-phenyl-1,3-thiazol-2-yl)amine] was run?
A: 23.06 ± 0.11 µM

Q: For “N-[2,6-Dichloro- phenyl)methylidene]-N-(4- phenyl-1,3-thiazol- 2-yl)amine [Compound 25]”, which IC50 is on record?
A: 22.33 ± 0.11 µM

Q: With “N-[2-Chloro- phenyl)methylidene]- N-(4-phenyl-1,3- thiazol-2-yl) amine [Compound 20]” as the molecule, how does the IC50 read?
A: 13.03 ± 0.02 µM

Q: With “N-[2-Fluorophenyl) methylidene]-N- (4-phenyl-1,3- thiazol-2-yl)amine [Compound 22]” as the molecule, how does the IC50 read?
A: 17.93 ± 0.07 µM

Q: How did the IC50 turn out when “N-[2-Naphthylmethyl- idene]-N-(4-phenyl- 1,3-thiazol-2-yl)amine [Compound 7]” was run?
A: 9.33 ± 0.02 µM

Q: “N-[4-(Dimethylamino) phenyl]methylidene}-N- (4-phenyl-1,3-thiazol-2- yl)amine [Compound 14]” was tested. Which IC50 did it give?
A: 20.36 ± 0.11 µM

Q: “N-[4-(Methylsulfanyl) phenyl]methylidene}-N- (4-phenyl-1,3-thiazol-2- yl)amine [Compound 18]” was tested. Which IC50 did it give?
A: 6.96 ± 0.054 µM

Q: “N-[4-Chlorophenyl) methylidene]-N-(4-phenyl- 1,3-thiazol-2-yl)amine [Compound 26]” was tested. Which IC50 did it give?
A: 19 ± 0.04 µM

Q: Which IC50 does the source give for “N-[4-Isopropylphenyl) methylidene]-N-(4- phenyl-1,3-thiazol-2- yl)amine [Compound 9]” here?
A: 14.5 ± 0.16 µM

Q: Which IC50 does the source give for “N-[4-Nitrophenyl)methyl- idene]-N-(4-phenyl-1,3- thiazol-2-yl)amine [Compound 11]” here?
A: 32.5 ± 0.02 µM

Q: How did the IC50 turn out when “N-[Phenylmethyl- idene]-N-(4-phenyl- 1,3-thiazol-2-yl) amine [Compound 19]” was run?
A: 16.76 ± 0.054 µM

Same assay, conditions: Table 2, jack bean urease; read-out: IC50

Q: With C(=Nc1nc(-c2ccccc2)cs1)c1c[nH]c2ccccc12 [Compound 2, N-[1H-indol-3-yl-methylidene]-N-(4-phenyl-1,3-thiazol-2-yl)amine] as the molecule, how does the IC50 read?
A: 8.5 µM

Q: With Oc1ccc(Cl)cc1C=Nc1nc(-c2ccccc2)cs1 [Compound 8, 4-Chloro-2-{[(4-phenyl-1,3-thiazol-2-yl)imino]methyl} phenol] as the molecule, how does the IC50 read?
A: 8.1 µM

Q: With Cc1ccc(C=Nc2nc(-c3ccccc3)cs2)o1 [Compound 10, N-[(5-Methyl-2-furyl)methylidene]-N-(4-phenyl-1,3-thiazol-2-yl)amine] as the molecule, how does the IC50 read?
A: 17.8 µM

Q: For “N-[2-Naphthylmethyl- idene]-N-(4-phenyl- 1,3-thiazol-2-yl)amine [Compound 7]”, which IC50 is on record?
A: 9.33 µM

Q: With “N-[4-Ethoxyphenyl)methyl- idene]-N-(4-phenyl-1,3- thiazol-2-yl)amine [Compound 4]” as the molecule, how does the IC50 read?
A: 11.2 µM

Q: For “N-[4-Isopropylphenyl) methylidene]-N-(4- phenyl-1,3-thiazol-2- yl)amine [Compound 9]”, which IC50 is on record?
A: 14.5 µM

Same assay, conditions: in words

Q: Which “urease inhibitory activity compared with standard thiourea” value does the source give for “N-[2,6-Dichloro- phenyl)methylidene]-N-(4- phenyl-1,3-thiazol- 2-yl)amine [Compound 25]” here?
A: significant urease inhibitory activity, comparable to standard

Q: For “N-[4-Methoxyphenyl) methylidene]-N-(4- phenyl-1,3-thiazol-2- yl)amine [Compound 13]”, which “urease inhibitory activity compared with standard thiourea” value is on record?
A: significant urease inhibitory activity, comparable to standard

Q: How did the “urease inhibitory activity compared with standard thiourea” value turn out when “N-[4-Nitrophenyl)methyl- idene]-N-(4-phenyl-1,3- thiazol-2-yl)amine [Compound 11]” was run?
A: significant urease inhibitory activity, comparable to standard

Same assay, conditions: read-out: IC50

Q: Which IC50 does the source give for “N-(4-Phenyl-1,3- thiazol-2-yl)-N-[4- pyridinylmethyl- idene]amine [Compound 5]” here?
A: 7.6 µM

Same assay, conditions: read-out: IC50 ± SEM

Q: For “N-(4-Phenyl-1,3- thiazol-2-yl)-N-[4- pyridinylmethyl- idene]amine [Compound 5]”, which IC50 is on record?
A: 7.6 ± 0.08 µM

These molecules were tested against jack bean urease (Canavalia ensiformis (Jack bean) (Dolichos ensiformis), UniProt P07374) (assay: biochemical). Settings: not given.
Format: biochemical
Design: Vmax / Vmaxapp: unit not given here
Description: The Lineweaver-Burk plot was used to determine the type of inhibition, while Dixon plot and secondary replete were used for the determination of dissociation constants (Ki). The Ki, Km, and Vmax were determined by non-linear regression equation. The Ki value was determined from lineweaver-Burk plot. For the calculation of Ki values, initially the 1/Vmaxapp values were determine on y-axis of lineweaver-Burk plot at each junction point of lines of every inhibitor concentration. Secondly the slope of the inhibitor at concentration of each line were determined on Lineweaver-Burk plot and re-plotted against the inhibitor concentrations.
Graphs were plotted using GraFit program. Values of the correlation coefficients, slopes, intercepts, and their standard errors were obtained by the linear regression analysis using the same program. Each point in the constructed graphs represents the mean of the three experiments.
In mixed-type of inhibition, both Km and Vmax are affected.
Three different methods were applied to determine the type of inhibition and Ki values for these inhibitors. Firstly by using Lineweaver-Burk plots the reciprocal of the rate of the reaction were plotted against the reciprocal of substrate concentration to monitor the effect of inhibitor on both Km and Vmax. Secondly the secondary replots of Lineweaver-Burk plots were plotted to determine the Ki value. The Ki values were calculated by plotting the slope of each line in the Lineweaver-Burk plots against the different concentration of inhibitors.

Q: With C(=Nc1nc(-c2ccccc2)cs1)c1c[nH]c2ccccc12 [Compound 2, N-[1H-indol-3-yl-methylidene]-N-(4-phenyl-1,3-thiazol-2-yl)amine] as the molecule, how does the Ki read?
A: 9.6 ± 0.0024 µM

Q: Which Ki does the source give for CCOc1cccc(C=Nc2nc(-c3ccccc3)cs2)c1O [Compound 3, 2-Ethoxy-6-{[(4-phenyl-1,3-thiazol-2-yl)imino]methyl}phenol] here?
A: 9.7 ± 0.007 µM

Q: How did the Ki turn out when COc1cccc(C=Nc2nc(-c3ccccc3)cs2)c1O [Compound 6, 2-Methoxy-6-{[(4-phenyl-1,3-thiazol-2-yl)imino]methyl} phenol] was run?
A: 8.22 ± 0.0233 µM

Q: How did the Ki turn out when Oc1ccc(Cl)cc1C=Nc1nc(-c2ccccc2)cs1 [Compound 8, 4-Chloro-2-{[(4-phenyl-1,3-thiazol-2-yl)imino]methyl} phenol] was run?
A: 7.89 ± 0.0142 µM

Q: Which Ki does the source give for Cc1ccc(C=Nc2nc(-c3ccccc3)cs2)o1 [Compound 10, N-[(5-Methyl-2-furyl)methylidene]-N-(4-phenyl-1,3-thiazol-2-yl)amine] here?
A: 14.82 ± 0.0109 µM

Same assay, conditions: from Lineweaver-Burk plot

Q: Which “Type of Inhibition” value does the source give for NC(N)=S [Thiourea, reference compound] here?
A: Competitive inhibition

Q: How did the “Type of Inhibition” value turn out when “N-(4-Phenyl-1,3- thiazol-2-yl)-N-[4- pyridinylmethyl- idene]amine [Compound 5]” was run?
A: Competitive inhibition

Q: With “N-[2-Naphthylmethyl- idene]-N-(4-phenyl- 1,3-thiazol-2-yl)amine [Compound 7]” as the molecule, how does the “Type of Inhibition” value read?
A: Competitive inhibition

Q: For “N-[4-Ethoxyphenyl)methyl- idene]-N-(4-phenyl-1,3- thiazol-2-yl)amine [Compound 4]”, which “Type of Inhibition” value is on record?
A: mixed-type; also recorded: Mixed inhibition

Q: Which “Type of Inhibition” value does the source give for “N-[4-Isopropylphenyl) methylidene]-N-(4- phenyl-1,3-thiazol-2- yl)amine [Compound 9]” here?
A: mixed-type; also recorded: Mixed inhibition

Same assay, conditions: in presence of inhibitor

Q: How did the Vmaxapp turn out when “N-(4-Phenyl-1,3- thiazol-2-yl)-N-[4- pyridinylmethyl- idene]amine [Compound 5]” was run?
A: 23.5

Q: For “N-[2-Naphthylmethyl- idene]-N-(4-phenyl- 1,3-thiazol-2-yl)amine [Compound 7]”, which Vmaxapp is on record?
A: 29

Q: With “N-[4-Ethoxyphenyl)methyl- idene]-N-(4-phenyl-1,3- thiazol-2-yl)amine [Compound 4]” as the molecule, how does the Vmaxapp read?
A: 12.85

Q: For “N-[4-Isopropylphenyl) methylidene]-N-(4- phenyl-1,3-thiazol-2- yl)amine [Compound 9]”, which Vmaxapp is on record?
A: 8.72

Same assay, conditions: mean of triplicate; read-out: Ki ± S.E.M.

Q: How did the Ki turn out when NC(N)=S [Thiourea, reference compound] was run?
A: 20.01 ± 0.02 µM

Q: With “N-(4-Phenyl-1,3- thiazol-2-yl)-N-[4- pyridinylmethyl- idene]amine [Compound 5]” as the molecule, how does the Ki read?
A: 13.6 ± 0.0123 µM

Q: With “N-[2-Naphthylmethyl- idene]-N-(4-phenyl- 1,3-thiazol-2-yl)amine [Compound 7]” as the molecule, how does the Ki read?
A: 11.89 ± 0.004 µM

Q: “N-[4-Ethoxyphenyl)methyl- idene]-N-(4-phenyl-1,3- thiazol-2-yl)amine [Compound 4]” was tested. Which Ki did it give?
A: 9.23 ± 0.018 µM

Q: How did the Ki turn out when “N-[4-Isopropylphenyl) methylidene]-N-(4- phenyl-1,3-thiazol-2- yl)amine [Compound 9]” was run?
A: 12.39 ± 0.0168 µM

Same assay, conditions: substrate urea, in presence of inhibitor

Q: How did the Kmapp turn out when NC(N)=S [Thiourea, reference compound] was run?
A: 7.38 mM

Q: Which Kmapp does the source give for “N-(4-Phenyl-1,3- thiazol-2-yl)-N-[4- pyridinylmethyl- idene]amine [Compound 5]” here?
A: 5.09 mM

Q: How did the Kmapp turn out when “N-[2-Naphthylmethyl- idene]-N-(4-phenyl- 1,3-thiazol-2-yl)amine [Compound 7]” was run?
A: 6.28 mM

Q: Which Kmapp does the source give for “N-[4-Ethoxyphenyl)methyl- idene]-N-(4-phenyl-1,3- thiazol-2-yl)amine [Compound 4]” here?
A: 2.56 mM

Q: With “N-[4-Isopropylphenyl) methylidene]-N-(4- phenyl-1,3-thiazol-2- yl)amine [Compound 9]” as the molecule, how does the Kmapp read?
A: 3.22 mM

Same assay, conditions: substrate urea, without inhibitor

Q: How did the Km turn out when NC(N)=S [Thiourea, reference compound] was run?
A: 2.25 mM

Q: “N-(4-Phenyl-1,3- thiazol-2-yl)-N-[4- pyridinylmethyl- idene]amine [Compound 5]” was tested. Which Km did it give?
A: 2.25 mM

Q: How did the Km turn out when “N-[2-Naphthylmethyl- idene]-N-(4-phenyl- 1,3-thiazol-2-yl)amine [Compound 7]” was run?
A: 2.25 mM

Q: How did the Km turn out when “N-[4-Ethoxyphenyl)methyl- idene]-N-(4-phenyl-1,3- thiazol-2-yl)amine [Compound 4]” was run?
A: 2.25 mM

Q: “N-[4-Isopropylphenyl) methylidene]-N-(4- phenyl-1,3-thiazol-2- yl)amine [Compound 9]” was tested. Which Km did it give?
A: 2.2 mM

Same assay, conditions: without inhibitor

Q: How did the Vmax turn out when “N-(4-Phenyl-1,3- thiazol-2-yl)-N-[4- pyridinylmethyl- idene]amine [Compound 5]” was run?
A: 21.64

Q: Which Vmax does the source give for “N-[2-Naphthylmethyl- idene]-N-(4-phenyl- 1,3-thiazol-2-yl)amine [Compound 7]” here?
A: 28.8

Q: How did the Vmax turn out when “N-[4-Ethoxyphenyl)methyl- idene]-N-(4-phenyl-1,3- thiazol-2-yl)amine [Compound 4]” was run?
A: 23.47

Q: With “N-[4-Isopropylphenyl) methylidene]-N-(4- phenyl-1,3-thiazol-2- yl)amine [Compound 9]” as the molecule, how does the Vmax read?
A: 19
